From US9028845B2, “Chimeric immunomodulatory compounds and methods of using the same-IV” (Dynavax Technologies Corporation, priority 2001, dated 2015)

Experiments:
human PBMCs = assay: Human PBMC cytokine response assay (IFN-γ and IFN-α in cell-free medium by ELISA), with or without cPLGA; type: cell-based; conditions: for immunomodulatory activity (IFN-γ / IFN-α secretion), in words: used alone (no cPLGA);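 as to IFN-α (pg/ml) mean: 20 µg/mL compound for 24 hours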;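 as to IFN-γ (pg/ml) mean: 20 µg/mL compound for 24 hours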
mouse splenocytes = assay: Mouse splenocyte cytokine secretion (IL-6, IL-12, IFN by ELISA); type: cell-based, BALB/c mice; set-up: IFN: unit not given beside the values; conditions: 24 h
Method: Polynucleotides and chimeric compounds were tested for immunostimulatory activity on mouse splenocytes. Immunostimulation was assessed by measurement of cytokine secretion into the culture media. Cytokine levels in the culture supernatant were determined by enzyme-linked immunosorbent assay (ELISA) tests.
Cells were isolated and prepared using standard techniques. Spleens of 8 to 20 week-old BALB/c mice were harvested and the splenocytes isolated using standard teasing and treatment with ACK lysing buffer from BioWhittaker, Inc. Four spleens were pooled in this experiment. Isolated cells were washed in RPMI 1640 media supplemented with 2% heat-inactivated fetal calf serum (FCS), 50 μM 2-mercaptoethanol, 1% penicillin-streptomycin, and 2 mM L-glutamine and resuspended at approximately […] in 10% FCS/RPMI (RPMI 1640 media with 10% heat-inactivated FCS, 50 μM 2-mercaptoethanol, 1% penicillin-streptomycin, and 2 mM L-glutamine).
Cell cultures were set up in triplicate with approximately 7×10^5 cells/well in a 96-well flat microtiter plate in 100 μl 10% FCS/RPMI with the cells allowed to rest for at lest 1 hour after plating. The indicated test compounds were incubated (at the indicated concentrations) for 24 hours at 37° C. Cell supernatants were harvested and frozen at −80° C. Cytokine production by the cells was determined by ELISAs, as shown in 19.

CD19+ B cells = assay: Human B cell proliferation assay (3H-thymidine incorporation); conditions: B cells, 2 μg/ml, Experiment B; for mean of both: mean of donors 121 and 194
mice = assay: Serum cytokines (IL-12 p40, IL-6, TNF-α) after subcutaneous injection in mice; type: in vivo; conditions: 20 ug subcutaneous, blood 2 hours later
Method: Blood was collected 2 hours later. For the LPS positive control group, mice were injected intraperitoneally with a 200 ul volume, and blood was collected 1.5 hours later (i.e., at the peak of LPS induced TNF-α activity). The blood was clotted and the serum was prepared and stored at −80° C. until assayed. Serum cytokines were assayed using Biosource cytoscreen kits for TNF-α and Pharmingen antibody pairs for mIL-6 and mIL-12. All samples were assayed in duplicate.

[1] = 20 μg/ml (mixtures: 20 μg/ml total), 24 h
[2] = mean of Donors 1-2, 20 μg/ml, 24 h
[3] = mean of Donors 5-6, 20 μg/ml (mixtures: 20 μg/ml total), 24 h
[4] = mean of Donors 7-8, 20 μg/ml, 24 h
[5] = Table 25, mean of donors 28250-28253
[6] = donor 28066, 20 ug/ml, 24 h, + PLGA = premixed with 100 μg/ml cPLGA
[7] = donor 28067, 20 ug/ml, 24 h, + PLGA = premixed with 100 μg/ml cPLGA
[8] = donor 28068, 20 ug/ml, 24 h, + PLGA = premixed with 100 μg/ml cPLGA
[9] = mean of donors 28065-28068, 20 ug/ml, 24 h, + PLGA = premixed with 100 μg/ml cPLGA

“5′-TCGTCG-3′- C3-5′-ACGTTCG-3′-C3-5′-AGATGAT-3′ [Compound C-11]” was tested, and the “IFN-α (pg/ml) Donor 1” value (human PBMCs; 20 μg/ml, 24 h) was 119 pg/mL, the “IFN-γ (pg/ml) Donor 1” value (human PBMCs; 20 μg/ml, 24 h) was 2308 pg/mL and the “IFN-α (pg/ml) Donor 2” value (human PBMCs; 20 μg/ml, 24 h) was 0 pg/mL. The “IFN-γ (pg/ml) Donor 2” value (human PBMCs; 20 μg/ml, 24 h) was 270 pg/mL, the “IFN-α (pg/ml) Donor 5” value (human PBMCs; [1]) was 76 pg/mL and the “IFN-γ (pg/ml) Donor 5” value (human PBMCs; [1]) was 25 pg/mL. For the same substance, the “IFN-α (pg/ml) Donor 6” value (human PBMCs; [1]) was 175 pg/mL, the “IFN-γ (pg/ml) Donor 6” value (human PBMCs; [1]) was 792 pg/mL and the “IFN-α (pg/ml) Donor 7” value (human PBMCs; 20 μg/ml, 24 h) was 6 pg/mL. For the same substance, the “IFN-γ (pg/ml) Donor 7” value (human PBMCs; 20 μg/ml, 24 h) was 5 pg/mL, the “IFN-α (pg/ml) Donor 8” value (human PBMCs; 20 μg/ml, 24 h) was 56 pg/mL and the “IFN-γ (pg/ml) Donor 8” value (human PBMCs; 20 μg/ml, 24 h) was 419 pg/mL. The “IFN-α (pg/ml) mean” value (human PBMCs; [2]) was 59 pg/mL, the “IFN-γ (pg/ml) mean” value (human PBMCs; [2]) was 1289 pg/mL and the “IFN-α (pg/ml) mean” value (human PBMCs; [3]) was 126 pg/mL. The “IFN-γ (pg/ml) mean” value (human PBMCs; [3]) was 409 pg/mL, the “IFN-α (pg/ml) mean” value (human PBMCs; [4]) was 31 pg/mL and the “IFN-γ (pg/ml) mean” value (human PBMCs; [4]) was 212 pg/mL. For the same substance, the “immunomodulatory activity (IFN-γ / IFN-α secretion), in words” value (human PBMCs) was “did have immunomodulatory activity”, the IFN (mouse splenocytes; dose 0.1 μg/ml) was 960 and the IL-6 (mouse splenocytes; dose 0.1 μg/ml) was 458. It also gave an IL-12 (mouse splenocytes; dose 0.1 μg/ml) of 3359, an IFN (mouse splenocytes; dose 1.0 μg/ml) of 3220 and an IL-6 (mouse splenocytes; dose 1.0 μg/ml) of 11814. It also gave an IL-12 (mouse splenocytes; dose 1.0 μg/ml) of 4914, an IFN (mouse splenocytes; dose 5.0 μg/ml) of 3342 and an IL-6 (mouse splenocytes; dose 5.0 μg/ml) of 10098. For the same substance, the IL-12 (mouse splenocytes; dose 5.0 μg/ml) was 4279, the cpm1 (CD19+ B cells; donor 121) was 30367 cpm and the cpm2 (CD19+ B cells; donor 121) was 30412 cpm. It also gave a cpm3 (CD19+ B cells; donor 121) of 18528 cpm, a mean cpm (CD19+ B cells; donor 121 mean) of 26436 cpm and a cpm1 (CD19+ B cells; donor 194) of 16967 cpm. It also gave a cpm2 (CD19+ B cells; donor 194) of 20898 cpm, a cpm3 (CD19+ B cells; donor 194) of 11253 cpm and a mean cpm (CD19+ B cells; donor 194 mean) of 16373 cpm. For the same substance, the mean of both (CD19+ B cells) was 21404 cpm.

In the case of “5′-TCGTCG-3′-HEG-5′-ACGTTCG-3′-HEG-5′-AGATGAT-3′ [Compound C-10]”, the “IFN-α (pg/ml) Donor 1” value (human PBMCs; 20 μg/ml, 24 h) is reported as 1662 pg/mL, the “IFN-γ (pg/ml) Donor 1” value (human PBMCs; 20 μg/ml, 24 h) is reported as 1595 pg/mL and the “IFN-α (pg/ml) Donor 2” value (human PBMCs; 20 μg/ml, 24 h) is reported as 50 pg/mL. The “IFN-γ (pg/ml) Donor 2” value (human PBMCs; 20 μg/ml, 24 h) was 952 pg/mL, the “IFN-α (pg/ml) Donor 5” value (human PBMCs; [1]) was 91 pg/mL and the “IFN-γ (pg/ml) Donor 5” value (human PBMCs; [1]) was 102 pg/mL. For the same substance, the “IFN-α (pg/ml) Donor 6” value (human PBMCs; [1]) was 1700 pg/mL, the “IFN-γ (pg/ml) Donor 6” value (human PBMCs; [1]) was 806 pg/mL and the “IFN-α (pg/ml) Donor 7” value (human PBMCs; 20 μg/ml, 24 h) was 46 pg/mL. The “IFN-γ (pg/ml) Donor 7” value (human PBMCs; 20 μg/ml, 24 h) was 23 pg/mL, the “IFN-α (pg/ml) Donor 8” value (human PBMCs; 20 μg/ml, 24 h) was 539 pg/mL and the “IFN-γ (pg/ml) Donor 8” value (human PBMCs; 20 μg/ml, 24 h) was 198 pg/mL. For the same substance, the IFN-α (human PBMCs; Table 9, donor 28089) was 17 pg/mL, the IFN-γ (human PBMCs; Table 9, donor 28089) was 35 pg/mL and the IFN-α (human PBMCs; Table 9, donor 28090) was 61 pg/mL. The IFN-γ (human PBMCs; Table 9, donor 28090) was 44 pg/mL, the IFN-α (human PBMCs; Table 9, donor 28098) was 187 pg/mL and the IFN-γ (human PBMCs; Table 9, donor 28098) was 174 pg/mL. For the same substance, the IFN-α (human PBMCs; Table 9, donor 28099) was 304 pg/mL, the IFN-γ (human PBMCs; Table 9, donor 28099) was 140 pg/mL and the IFN-α mean (human PBMCs; Table 9, mean of donors) was 142 pg/mL. The IFN-γ mean (human PBMCs; Table 9, mean of donors) was 98 pg/mL, the IFN-a (human PBMCs; Table 25, donor 28250) was 16 pg/mL and the IFN-g (human PBMCs; Table 25, donor 28250, polynucleotides/spacers at amounts equivalent to the CIC, spacers alone 9 uM) was 337 pg/mL. For the same substance, the IFN-a (human PBMCs; Table 25, donor 28251) was 23 pg/mL, the IFN-g (human PBMCs; Table 25, donor 28251) was 163 pg/mL and the IFN-a (human PBMCs; Table 25, donor 28252) was 25 pg/mL. For the same substance, the IFN-g (human PBMCs; Table 25, donor 28252) was 776 pg/mL, the IFN-a (human PBMCs; Table 25, donor 28253) was 124 pg/mL and the IFN-g (human PBMCs; Table 25, donor 28253) was 898 pg/mL. The IFN-a mean (human PBMCs; [5]) was 47 pg/mL, the IFN-g mean (human PBMCs; [5]) was 544 pg/mL and the “IFN-γ (pg/ml) 28065” value (human PBMCs; donor 28065 (high background), 20 ug/ml, 24 h, + PLGA = premixed with 100 μg/ml cPLGA, 1000 = outside assay limits) was 1000 pg/mL. For the same substance, the “IFN-α (pg/ml) 28065” value (human PBMCs; donor 28065, 20 ug/ml, 24 h, + PLGA = premixed with 100 μg/ml cPLGA) was 116 pg/mL, the “IFN-α (pg/ml) 28066” value (human PBMCs; [6]) was 6 pg/mL and the “IFN-γ (pg/ml) 28066” value (human PBMCs; [6]) was 9 pg/mL. The “IFN-α (pg/ml) 28067” value (human PBMCs; [7]) was 107 pg/mL, the “IFN-γ (pg/ml) 28067” value (human PBMCs; [7]) was 51 pg/mL and the “IFN-α (pg/ml) 28068” value (human PBMCs; [8]) was 340 pg/mL. For the same substance, the “IFN-γ (pg/ml) 28068” value (human PBMCs; [8]) was 559 pg/mL, the “IFN-α (pg/ml) mean” value (human PBMCs; [2]) was 856 pg/mL and the “IFN-γ (pg/ml) mean” value (human PBMCs; [2]) was 1273 pg/mL. For the same substance, the “IFN-α (pg/ml) mean” value (human PBMCs; [3]) was 896 pg/mL, the “IFN-γ (pg/ml) mean” value (human PBMCs; [3]) was 454 pg/mL and the “IFN-α (pg/ml) mean” value (human PBMCs; [4]) was 293 pg/mL. For the same substance, the “IFN-γ (pg/ml) mean” value (human PBMCs; [4]) was 111 pg/mL, the “IFN-α (pg/ml) mean” value (human PBMCs; [9]) was 142 pg/mL and the “IFN-γ (pg/ml) mean” value (human PBMCs; [9]) was 405 pg/mL. For the same substance, the “immunomodulatory activity (IFN-γ / IFN-α secretion), in words” value (human PBMCs) was “did have immunomodulatory activity”, the IFN (mouse splenocytes; dose 0.1 μg/ml) was 9 and the IL-6 (mouse splenocytes; dose 0.1 μg/ml) was 9. It also gave an IL-12 (mouse splenocytes; dose 0.1 μg/ml) of 122, an IFN (mouse splenocytes; dose 1.0 μg/ml) of 104 and an IL-6 (mouse splenocytes; dose 1.0 μg/ml) of 1761. The IL-12 (mouse splenocytes; dose 1.0 μg/ml) was 1738, the IFN (mouse splenocytes; dose 5.0 μg/ml) was 199 and the IL-6 (mouse splenocytes; dose 5.0 μg/ml) was 3342. The IL-12 (mouse splenocytes; dose 5.0 μg/ml) was 2329, the cpm1 (CD19+ B cells; donor 121) was 15142 cpm and the cpm2 (CD19+ B cells; donor 121) was 14136 cpm. For the same substance, the cpm3 (CD19+ B cells; donor 121) was 16158 cpm, the mean cpm (CD19+ B cells; donor 121 mean) was 15145 cpm and the cpm1 (CD19+ B cells; donor 194) was 7480 cpm. For the same substance, the cpm2 (CD19+ B cells; donor 194) was 5458 cpm, the cpm3 (CD19+ B cells; donor 194) was 5943 cpm and the mean cpm (CD19+ B cells; donor 194 mean) was 6294 cpm. For the same substance, the mean of both (CD19+ B cells) was 10720 cpm.

5′-AACGTT-3′ [Compound P-11] was tested, and the “induction of serum IL-12 p40, IL-6 and TNF-α, in words” value (mice) was “inactive”.
